According to patent US5540937A, “Process for preparing microspheres for the prolonged release of the LHRH hormone and its analogues, microspheres and formulations obtained” (Rhone Merieux, priority 1992, dated 1996):

Assay: solubility of the peptide in the continuous phase
Format: physicochemical
Settings: continuous aqueous phase (demineralized water containing 1% PVA)
Description: Although the solubility of this peptide in water is high, high encapsulation yields are obtained.

## CC(C)C[C@H](NC(=O)[C@@H](Cc1c[nH]c2ccccc12)NC(=O)[C@H](Cc1ccc(O)cc1)NC(=O)[C@H](CO)NC(=O)[C@H](Cc1c[nH]c2ccccc12)NC(=O)[C@H](Cc1c[nH]cn1)NC(=O)[C@@H]1CCC(=O)N1)C(=O)N[C@@H](CCCNC(=N)N)C(=O)N1CCC[C@H]1C(=O)NCC(N)=O [[D-Trp^6]-LHRH]
  solubility in the continuous phase: about 45 mg/ml
